Measured values: patent US10323027B2, “2,3-dihydro-4H-1,3-benzoxazin-4-one derivatives as modulators of cholinergic muscarinic M1 receptor” (Takeda Pharmaceutical Company Limited, priority 2015, dated 2019)

Target: T1, human M1 receptor (hCHRM1) (Homo sapiens, UniProt P11229)
T1 construct: expressed in transfected cells
T1 sequence (P11229 1-460): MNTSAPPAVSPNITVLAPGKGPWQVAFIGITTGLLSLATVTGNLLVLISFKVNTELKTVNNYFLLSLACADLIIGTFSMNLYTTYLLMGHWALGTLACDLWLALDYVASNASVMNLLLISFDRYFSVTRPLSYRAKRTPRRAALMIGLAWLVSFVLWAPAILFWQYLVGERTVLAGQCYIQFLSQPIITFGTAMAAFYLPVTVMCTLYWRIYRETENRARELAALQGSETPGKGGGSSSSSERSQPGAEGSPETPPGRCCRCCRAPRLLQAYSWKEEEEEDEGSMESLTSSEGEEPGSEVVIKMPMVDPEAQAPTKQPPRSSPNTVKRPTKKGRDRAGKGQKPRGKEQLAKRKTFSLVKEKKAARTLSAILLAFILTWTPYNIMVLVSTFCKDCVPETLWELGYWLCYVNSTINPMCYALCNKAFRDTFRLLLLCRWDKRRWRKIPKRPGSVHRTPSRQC
Experiment: Measurement of M1 receptor positive allosteric modulator (M1PAM) activity, Ca2+ fluorescence by FLIPRtetra (Experimental Example 1)
Format: cell-based
Conditions: for activity (%) at 10 μM: 10 μM test compound, 100% = acetylcholine 1 μM, 0% = DMSO; for EC50: inflection point of concentration-dependent curve, in presence of acetylcholine at EC20 (0.8-1.0 nM), CHO-K1 cells expressing hCHRM1, read-out: IP value
Summary of the method: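 CHO-K1 cells stably expressing hCHRM1, loaded with Fluo-4 AM (probenecid), received compound with acetylcholine at EC20 (final 0.8-1.0 nM); Ca2+ fluorescence read 1 min by FLIPRtetra. Activity scaled 0% (DMSO) to 100% (1 μM acetylcholine); IP from inflection point of concentration curve.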

| Structure (SMILES) | activity (%) at 10 μM | EC50 |
| --- | --- | --- |
| Cn1cc(-c2ccc(Cc3cc4c(c5ccccc35)OCNC4=O)cn2)cn1 [Example 47, 6-((6-(1-methyl-1H-pyrazol-4-yl)pyridin-3-yl)methyl)-2,3-dihydro-4H-naphtho[2,1-e][1,3]oxazin-4-one] | 110% | 5.3 nM |
| Cc1cc2c(cc1Cc1ccc(-n3cccn3)cc1)C(=O)N([C@H]1COCC[C@@H]1O)CO2 [Example 50, 1,5-anhydro-2,4-dideoxy-2-(7-methyl-4-oxo-6-(4-(1H-pyrazol-1-yl)benzyl)-2H-1,3-benzoxazin-3(4H)-yl)-L-threo-pentitol] | 120% | 8.6 nM |
| O=C1c2cc(CN3CCSCC3)c3ccccc3c2OCN1[C@H]1CCC[C@@H]1O [Example 57, 3-((1S,2S)-2-hydroxycyclopentyl)-6-(thiomorpholin-4-ylmethyl)-2,3-dihydro-4H-naphtho[2,1-e][1,3]oxazin-4-one] | 106% | 16 nM |
| Cc1ccc(Cc2cc3c(c4ccccc24)OCN(CC2CCCO2)C3=O)cn1 (stereo not drawn) [Example 58, 6-((6-methylpyridin-3-yl)methyl)-3-(tetrahydrofuran-2-ylmethyl)-2,3-dihydro-4H-naphtho[2,1-e][1,3]oxazin-4-one] | 94% | 16 nM |
| O=C1c2cc(CN3CC[S+]([O-])CC3)c3ccccc3c2OCN1[C@H]1CCC[C@@H]1O [Example 60, 3-((1S,2S)-2-hydroxycyclopentyl)-6-((1-oxidothiomorpholin-4-yl)methyl)-2,3-dihydro-4H-naphtho[2,1-e][1,3]oxazin-4-one] | 105% | 22 nM |
| Cc1cc2c(cc1Cc1ccc(-c3cn(C)nn3)cc1)C(=O)N(CC1CCCO1)CO2 (stereo not drawn) [Example 61, 7-methyl-6-(4-(1-methyl-1H-1,2,3-triazol-4-yl)benzyl)-3-(tetrahydrofuran-2-ylmethyl)-2,3-dihydro-4H-1,3-benzoxazin-4-one] | 92% | 23 nM |
| Cc1ccc(Cc2cc3c(c4ccccc24)OCN(CC2CCCO2)C3=O)cn1 (stereo not drawn) [Example 68, 6-((6-methylpyridin-3-yl)methyl)-3-(tetrahydrofuran-2-ylmethyl)-2,3-dihydro-4H-naphtho[2,1-e][1,3]oxazin-4-one] | 90% | 48 nM |
| O=C1c2cc(CN3CCC(F)(F)C3)c3ccccc3c2OCN1[C@H]1CCC[C@@H]1O [Example 69, 6-((3,3-difluoropyrrolidin-1-yl)methyl)-3-((1S,2S)-2-hydroxycyclopentyl)-2,3-dihydro-4H-naphtho[2,1-e][1,3]oxazin-4-one] | 93% | 51 nM |
| N#CC1CCN(Cc2cc3c(c4ccccc24)OCN([C@H]2CCC[C@@H]2O)C3=O)CC1 [Example 70, 1-((3-((1S,2S)-2-hydroxycyclopentyl)-4-oxo-3,4-dihydro-2H-naphtho[2,1-e][1,3]oxazin-6-yl)methyl)piperidine-4-carbonitrile] | 104% | 52 nM |
| Cc1cc2c(cc1Cc1ccc(-c3cn(C)nn3)nc1)C(=O)N(CC1CCCO1)CO2 (stereo not drawn) [Example 71, 7-methyl-6-((6-(1-methyl-1H-1,2,3-triazol-4-yl)pyridin-3-yl)methyl)-3-(tetrahydrofuran-2-ylmethyl)-2,3-dihydro-4H-1,3-benzoxazin-4-one] | 105% | 53 nM |
| N#CC1CCN(Cc2cc3c(c4ccccc24)OCN([C@H]2CCC[C@@H]2O)C3=O)C1 (stereo partly drawn) [Example 75, 1-((3-((1S,2S)-2-hydroxycyclopentyl)-4-oxo-3,4-dihydro-2H-naphtho[2,1-e][1,3]oxazin-6-yl)methyl)pyrrolidine-3-carbonitrile (diastereoisomer)] | 102% | 60 nM |
| O=C1c2cc(CN3CCOCC3)c3ccccc3c2OCN1[C@H]1CCC[C@@H]1O [Example 77, 3-((1S,2S)-2-hydroxycyclopentyl)-6-(morpholin-4-ylmethyl)-2,3-dihydro-4H-naphtho[2,1-e][1,3]oxazin-4-one] | 104% | 63 nM |
| O=C1c2cc(CN3CCC(F)CC3)c3ccccc3c2OCN1[C@H]1CCC[C@@H]1O [Example 79, 6-((4-fluoropiperidin-1-yl)methyl)-3-((1S,2S)-2-hydroxycyclopentyl)-2,3-dihydro-4H-naphtho[2,1-e][1,3]oxazin-4-one] | 97% | 78 nM |
| O=C1NCOc2c1cc(Cc1ccc(Cl)nc1)c1ccccc21 [Example 80, 6-((6-chloropyridin-3-yl)methyl)-2,3-dihydro-4H-naphtho[2,1-e][1,3]oxazin-4-one] | 97% | 81 nM |
| Cc1cc2c(cc1Cc1ccc(-c3cn(C)nc3C)nc1)C(=O)N(CC1CCCO1)CO2 (stereo not drawn) [Example 82, 6-((6-(1,3-dimethyl-1H-pyrazol-4-yl)pyridin-3-yl)methyl)-7-methyl-3-(tetrahydrofuran-2-ylmethyl)-2,3-dihydro-4H-1,3-benzoxazin-4-one] | 93% | 90 nM |

Now from value to compound:

| activity (%) at 10 μM | EC50 | Structure (SMILES) |
| --- | --- | --- |
| 92% | 4.8 nM | Cc1c(Cc2ccc(-c3cnn(C)c3)nc2)cc2c(c1Cl)OCN(CC1CCCO1)C2=O (stereo not drawn) [Example 45, 8-chloro-7-methyl-6-((6-(1-methyl-1H-pyrazol-4-yl)pyridin-3-yl)methyl)-3-(tetrahydrofuran-2-ylmethyl)-2,3-dihydro-4H-1,3-benzoxazin-4-one] |
| 109% | 4.9 nM | COc1ccc(Cc2cc3c(c4ccccc24)OCN([C@H]2COCC[C@@H]2O)C3=O)cn1 [Example 46, 1,5-anhydro-2,4-dideoxy-2-(6-((6-methoxypyridin-3-yl)methyl)-4-oxo-2H-naphtho[2,1-e][1,3]oxazin-3(4H)-yl)-L-threo-pentitol] |
| 116% | 11 nM | Cc1c(Cc2ccc(Cl)nc2)cc2c(c1F)OCN([C@H]1CCCC[C@@H]1O)C2=O [Example 54, 6-((6-chloropyridin-3-yl)methyl)-8-fluoro-3-((1S,2S)-2-hydroxycyclohexyl)-7-methyl-2,3-dihydro-4H-1,3-benzoxazin-4-one] |
| 99% | 34 nM | Cc1ccc(Cc2cc3c(cc2C)OCN([C@H]2CCC[C@@H]2O)C3=O)cn1 [Example 64, 3-((1S,2S)-2-hydroxycyclopentyl)-7-methyl-6-((6-methylpyridin-3-yl)methyl)-2,3-dihydro-4H-1,3-benzoxazin-4-one] |
| 98% | 46 nM | Cc1cc2c(cc1Cc1ccc(C#N)cc1)C(=O)N([C@H]1CCC[C@@H]1O)CO2 [Example 67, 4-((3-((1S,2S)-2-hydroxycyclopentyl)-7-methyl-4-oxo-3,4-dihydro-2H-1,3-benzoxazin-6-yl)methyl)benzonitrile] |
| 100% | 57 nM | O=C1c2cc(CN3CCCC(F)(F)C3)c3ccccc3c2OCN1[C@H]1CCC[C@@H]1O [Example 72, 6-((3,3-difluoropiperidin-yl)methyl)-3-((1S,2S)-2-hydroxycyclopentyl)-2,3-dihydro-4H-naphtho[2,1-e][1,3]oxazin-4-one] |
| 97% | 59 nM | COc1ccc(Cc2cc3c(cc2C)OCN([C@H]2CCC[C@@H]2O)C3=O)cc1 [Example 73, 3-((1S,2S)-2-hydroxycyclopentyl)-6-(4-methoxybenzyl)-7-methyl-2,3-dihydro-4H-1,3-benzoxazin-4-one] |
| 104% | 59 nM | COc1c(Cc2ccc(-c3cnn(C)c3)nc2)cc2c(c1F)OCN(CC1CCCO1)C2=O (stereo not drawn) [Example 74, 8-fluoro-7-methoxy-6-((6-(1-methyl-1H-pyrazol-4-yl)pyridin-3-yl)methyl)-3-(tetrahydrofuran-2-ylmethyl)-2,3-dihydro-4H-1,3-benzoxazin-4-one] |
| 93% | 63 nM | O=C1c2cc(Cc3ccc(Cl)nc3)c3ccccc3c2OCN1CC1CCCO1 (stereo not drawn) [Example 76, 6-((6-chloropyridin-3-yl)methyl)-3-(tetrahydrofuran-2-ylmethyl)-2,3-dihydro-4H-naphtho[2,1-e][1,3]oxazin-4-one] |
| 104% | 75 nM | Cc1c(Cc2ccc(-n3cccn3)cc2)cc2c(c1F)OCN(CC1CCCO1)C2=O (stereo not drawn) [Example 78, 8-fluoro-7-methyl-6-(4-(1H-pyrazol-1-yl)benzyl)-3-(tetrahydrofuran-2-ylmethyl)-2,3-dihydro-4H-1,3-benzoxazin-4-one] |
| 110% | 86 nM | Cc1ccc(Cc2cc3c(c(F)c2Cl)OCN([C@H]2CCC[C@@H]2O)C3=O)cn1 [Example 81, 7-chloro-8-fluoro-3-((1S,2S)-2-hydroxycyclopentyl)-6-((6-methylpyridin-3-yl)methyl)-2,3-dihydro-4H-1,3-benzoxazin-4-one] |
| 93% | 96 nM | Cc1ccc(Cc2cc3c(c(Cl)c2C)OCN(CC2CCCO2)C3=O)cn1 (stereo not drawn) [Example 84, 8-chloro-7-methyl-6-((6-methylpyridin-3-yl)methyl)-3-(tetrahydrofuran-2-ylmethyl)-2,3-dihydro-4H-1,3-benzoxazin-4-one] |
